This passage reports GI50 and TGI results from PubChem BioAssay (NCI).

What all share (assay): NCI anticancer screen, dose series, 48 h
Test [1] concerns A549 NSCLC.
The test system of test [2] is CAKI-1 renal.
The test system of test [3] is SNB-19 CNS.
For test [4], the system named is BT-549 breast.
For test [5], the system named is TK-10 renal.
Test [6] has as its system SK-MEL-28 melanoma.
Test [7] has as its system SW-620 colon.
Test [8] has as its system K-562 leukemia.
Test [9] concerns NCI-H460 lung.
Test [10] concerns HL-60(TB) leukemia.

“And” between values parts separate entries of the source, which are not always exact repeats. Identical values can stand only once.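 Method: 48-hour compound exposure of cells in 96-well plates, five concentrations, linear interpolation of endpoints. Abbreviation: GI50, concentration required for 50% inhibition of growth. Definition used: TGI = concentration required for complete inhibition of growth.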 Some results are limits rather than exact numbers.

In the case of `C#CCOc1cccc(Nc2ncnc3c(NC(=O)C=C)cccc23)c1`, the GI50 in [1] is 30.9 µM; in [2] it was 26.4 µM; in [3], 39.5 µM; in test [4], 13.9 µM; in test [5] it was 19.2 µM; in test [6], 20.6 µM. For the same compound, the GI50 is 25.8 µM in test [7], 7.87 µM in test [8], 27 µM in test [9] and 18.9 µM in test [10]. Moreover, the TGI in test [1] is over 100 µM; in [2], over 100 µM; in [3], over 100 µM; in test [4], 89.9 µM; in test [5] it was 69.2 µM; in test [6] it was 88.6 µM. The TGI in [7] was over 100 µM; in test [8], over 100 µM; in test [9], 80.4 µM; in test [10] it was over 100 µM.
With `NNCCc1ccc(NC(=O)CCCc2ccc(C(=O)Nc3ccccc3N)cc2)cc1`, the GI50 in [1] is 31.9 µM; in [2] it was 7.99 µM; in test [3] it was 63.1 µM; in test [4] it was 9.5 µM; in [5] it was 2.03 µM; in test [6], 12.1 µM. Also, the GI50 in test [7] was 5.77 µM; in test [8], 3.58 µM; in test [9], 13.3 µM; in test [10], 3.34 µM. Besides, the TGI in test [1], in test [2], in test [3], in test [4], in [5] and in test [6] was over 100 µM in each case. The TGI in test [7] is over 100 µM; in test [8], over 100 µM; in test [9], over 100 µM; in test [10] it was 25 µM.
As for `CN(C)C(=S)SSC(=S)N(C)C`, the GI50 in test [1] was 17.2 µM and 3.51 µM and 19.7 µM; in test [2] it was 15.9 µM and 61.5 µM and 21.1 µM; in test [3] it was 25.4 µM; in test [5] it was 16.1 µM and > 100 µM and 26.4 µM; in [6], 17.8 µM; in [9], 0.365 µM and 0.324 µM and 1.43 µM. The TGI is 45.9 µM and > 100 µM and 48.1 µM in [1]; 31.4 µM and > 100 µM and 40.1 µM in test [2]; over 100 µM in [3]; 30.6 µM and 31.3 µM and 28.4 µM in test [4]; 30.6 µM and > 100 µM and > 70.6 µM in test [5]; 42.4 µM and > 89.9 µM and > 54 µM in test [6]. Besides, the TGI in test [7] is 22.8 µM and 22.1 µM and > 56.6 µM; in [8], > 100 µM and 16.5 µM; in test [9], 25.2 µM and 13.6 µM and 53 µM; in [10] it was 70.6 µM and 9.41 µM and 10.8 µM.
As for `CCCC/C(=C\C1=C(C)C(=O)C(OC)=C(OC)C1=O)C(=O)O`, the GI50 in test [1], in test [2], in test [3], in [4], in test [5] and in [6] was over 100 µM in each case. The GI50 is over 100 µM in test [7], 50.1 µM in [8], over 100 µM in test [9] and 66.3 µM in test [10]. Also, the TGI in [1], in test [2], in test [3], in test [4], in test [5] and in test [6] was over 100 µM throughout. Besides, the TGI in [7], in test [8], in [9] and in test [10] was over 100 µM throughout.
